Data: patent US9133225B2, “Dual targeting anticancer agents” (priority 2013, dated 2015)

Key:
[1] = tested on: A549 cells; assay: MTT cytotoxicity assay, A549; settings: read-out: cytotoxicity IC50; A549, lung; MTT, 48 h treatment; spread in brackets
Excerpt: (§1) (a) Dulbecco's Modified Eagle Medium (DMEM), Dulbecco's phosphate buffered saline (DPBS), fetal bovine serum (FBS) and 0.25% trypsin/EDTA solutions were purchased from Cellgro (Manassas, Va.). Penicillin-streptomycin solutions were purchased from Mediatech (Manassas, Va.). (b) HeLa (CCL-2TM) cells, A549, A2870, A2870/CP70, MCF-7, PC-3, and MRC-5 cells were purchased from American Type Culture Collection (ATCC, Manassas, Va., USA). (c) HCT116 cells were kindly donated by Laura Trudel (MIT). HeLa, A549, MCF-7, and MRC-5 cells were cultured using DMEM supplemented with 10% FBS and 1% penicillin-streptomycin. A2870, A2870/CP70, and PC-3 cells were cultured in RPMI supplemented with 10% FBS and 1% penicillin-streptomycin. HCT116 cells were cultured in McCoy's supplemented with 10% FBS and 1% penicillin-streptomycin. All cell-culture experiments were performed in the aforementioned media in an incubator operating at 37° C. and in the presence of a humidified atmosphere containing 5.0% CO2. Cells were harvested using a 0.25% trypsin/EDTA solution.
(§2) The cytotoxicity of the compounds was assessed by means of the MTT assay (MTT=3-(4,5-dimethyl-2-thiazolyl)-2,5-diphenyl-2H-tetrazolium bromide). Typically, on day one, ˜1×10^3 cells were seeded into 96-well plates in 100 μL media per well. […] The optical density for each well at 550 nm was measured with a microplate reader.

[2] = tested on: HeLa cells; assay: MTT cytotoxicity assay, HeLa; settings: read-out: cytotoxicity IC50; HeLa, cervical; MTT, 48 h treatment; spread in brackets
Excerpt: as §1, §2

[3] = tested on: A2780 ovarian carcinoma cells; assay: MTT cytotoxicity assay, A2780; settings: read-out: cytotoxicity IC50; A2780, ovarian; MTT, 48 h treatment; spread in brackets
Excerpt: as §1, §2

[4] = tested on: A2780/CP70 cells (CisPt resistant); assay: MTT cytotoxicity assay, A2780/CP70; settings: read-out: cytotoxicity IC50; A2780/CP70, ovarian (CisPt resistant); MTT, 48 h treatment; spread in brackets
Excerpt: as §1, §2

[5] = tested on: MCF-7 cells; assay: MTT cytotoxicity assay, MCF-7; settings: read-out: cytotoxicity IC50; MCF-7, breast; MTT, 48 h treatment; spread in brackets
Excerpt: as §1
The cytotoxicity of the compounds was assessed by means of the MTT assay (MTT=3-(4,5-dimethyl-2-thiazolyl)-2,5-diphenyl-2H-tetrazolium bromide). Typically, on day one, ˜1×10^3 cells were seeded into 96-well plates in 100 μL media per well. The last row of the plate was left empty as a control for background absorption. The cells were allowed to grow for 24 h in the incubator at 37° C. On day two, a series of drug dilutions in growth media were prepared immediately prior to cell treatment. The media in the wells of the 96 plates were replaced with 100 μL of growth media containing appropriate drug concentrations. The cells were treated for 48 h at 37° C. in the incubator. On day four, a stock solution of MTT (5 mg/mL in PBS buffer) was diluted with media so that, when 100 μL of the media was added to each well, 10 μL of MTT stock was applied. […] The optical density for each well at 550 nm was measured with a microplate reader.

[6] = target: T1, Bcl-xL-Bax interactions (Homo sapiens, UniProt Q07817); assay: Co-immunoprecipitation of Bcl-xL, probed for Bax; format: cell-based; settings: A549 cells, respective IC50 values, 48 h
T1 construct: endogenous in cells; host or cells: A549
T1 sequence (Q07817 whole entry): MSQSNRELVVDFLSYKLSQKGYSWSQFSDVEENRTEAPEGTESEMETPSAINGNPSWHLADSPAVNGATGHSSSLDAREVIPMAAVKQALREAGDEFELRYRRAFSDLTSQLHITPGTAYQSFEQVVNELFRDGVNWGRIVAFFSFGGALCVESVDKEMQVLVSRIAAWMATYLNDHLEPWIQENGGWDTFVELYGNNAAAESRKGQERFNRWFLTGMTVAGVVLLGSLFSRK
Description: α-TOS is known to disrupt Bcl-xL-Bax interactions, activate Bax, and thus mediate mitochondrial centered apoptotic cell death. Co-immunoprecipitation studies were carried out to determine whether the Pt(IV)-α-TOS conjugates could behave in a similar manner. […] Additional immunoblotting studies were carried to determine the effect of Pt(IV)(α-TOS)(OEt) treatment on transcription. […] Overall Pt(IV)(α-TOS)(OEt) was able to (1) downregulate Bcl-xL expression and (2) inhibit the interaction of Bcl-xL with Bax, a prerequisite for mitochondrial dysfunction. The former is inherent to cisplatin but not α-TOS, and the latter was inherent to α-TOS but not cisplatin.
A549 cells (5×10^5 cells) were incubated with test compound for 48 h at 37° C. […] The resultant cell lysate was treated with protein A-agarose bead slurry (50 μL) and centrifuged to remove proteins that bind non-specifically. Anti Bcl-XL antibody (Cell Signalling Technology) was added to the lysate and incubated for 2 h at room temperature. Protein A-agarose bead slurry (50 μL) was added and the mixture was incubated at 4° C. overnight. Centrifugation allowed separation of the immunocomplex, which was washed with cold RIPA buffer (3×500 μL). The immunocomplex was then suspended in SDS-PAGE loading buffer (50 μL) and incubated at 95° C. for 10 min. The solution containing the immunocomplex was isolated by centrifugation and then analysed for Bax content using the immunoblotting analysis protocol described above.

[7] = tested on: A2780 ovarian cancer cells; assay: PI-annexin-V dual staining apoptosis assay; format: cell-based; settings: 4 μM for 48 h

CC[O][Pt]([NH2])([NH2])([Cl])([Cl])[O]C(=O)CCC(=O)Oc1c(C)c(C)c2c(c1C)CCC(C)(CCCC(C)CCCC(C)CCCC(C)C)O2 (stereo not drawn) [Pt(IV)(α-TOS)(OEt)]
IC50 [1]: 1300 nM
IC50 [2]: 1900 nM
IC50 [3]: 20 nM
IC50 [4]: 1100 nM
IC50 [5]: 5900 nM
Bcl-xL-Bax interaction (Bax associated to the Bcl-xL immunoprecipitate) [6]: reduced Bcl-xL-Bax interactions
cell population with characteristics of early apoptosis [7]: 28%
